Data published in paper PMC7315563, “Bioactive fluorenes. Part III: 2,7-dichloro-9H-fluorene-based thiazolidinone and azetidinone analogues as anticancer and antimicrobial against multidrug resistant strains agents” (BMC Chemistry, 2020).
Values after ≈ are worked out from the molar mass of the structure shown.

Columns and labels:
[1] = system: A549 human lung cancer cells; assay: cell viability assay (MTT); assay type: cell-based; settings: 24 h; for viability at 1 µg/mL: read-out: Validity (%) for sample concentrations (µg/mL) 1; for viability at 10 µg/mL: read-out: Validity (%) for sample concentrations (µg/mL) 10; for viability at 31.25 µg/mL: read-out: Validity (%) for sample concentrations (µg/mL) 31.25; for viability at 62.5 µg/mL: 62.50 µg/mL, read-out: Validity (%) for sample concentrations (µg/mL) 62.50; for viability at 125 µg/mL: read-out: Validity (%) for sample concentrations (µg/mL) 125; for viability at 250 µg/mL: read-out: Validity (%) for sample concentrations (µg/mL) 250; for viability at 500 µg/mL: read-out: Validity (%) for sample concentrations (µg/mL) 500; for viability at 1000 µg/mL: read-out: Validity (%) for sample concentrations (µg/mL) 1000
Procedure: WI-38 normal lung fibroblast cells, A549 lung cancer cells, and MDA-MB-231 breast cancer cells were obtained from VACSERA—Cell Culture Unit, Cairo, Egypt. The cell lines were originally obtained from the American Tissue Culture Collection (ATCC). WI-38, A549, and MDA-MB-231 cell lines were cultured in RPMI-1640 medium supplemented with 10% inactivate fetal bovine serum (FBS) and 1% penicillin/streptomycin were bought (Gibco, Invitrogen, CA). WI-38, A549, and MDA-MB-231 cells were seeded into 96-well plates (at a density of 5000 cells/well). […] Cell viability was then assessed using the MTT assay (Sigma Aldrich, St. Louis, MO, USA), and the absorbance was read at 570 nm using an ELISA microplate reader (Molecular Devices, Downingtown, PA, USA).

[2] = system: Escherichia coli (E. coli), multidrug resistant clinical isolate; assay: agar well diffusion assay; assay type: cell-based; settings: 24 h, 500 µg/mL of tested compound
Description: (§1) All microbial strains were kindly provided from the department of Medical Microbiology and Immunology faculty of Medicine Assiut University, these clinical isolates were obtained from clinical cases of infections admitted to Assiut University hospital as urinary tract infections, corneal ulcers, bacterial and fungal pneumonia, otomycosis, oral thrush and wound infections.
(§2) The clinical isolates used were multidrug resistant strains, they were resistant to β lactam (penicillin, amoxacillin, oxacillin), cephalosporins (cefazolin, cefaclor and cefepime) and macrolides (erythromycin and clarithromycin), they included Gram positive bacteria as Staphylococcus aureus (S. aureus), Methicillin-resistant Staphylococcus aureus (MRSA), Streptococcus pneumoniae (S. pneumoniae), and Gram negative bacteria as Escherichia coli (E. coli), Klebsiella pneumoniae (K. pneumoniae), Pseudomonas aeruginosa (P. aeruginosa), and Acinetobacter baumannii (A. baumannii). The fungal strains that were tested are Aspergillus flavus (A. flavus), A. niger (A. niger) and Candida albicans (C. albicans).
(§3) The antimicrobial activity of the fluorene derivatives was initially evaluated by agar well diffusion assay. Mueller–Hinton agar (CM0337) was poured into Petri dishes at 50–60 °C and left to solidify for 15 min. Subsequently, overnight microbial suspensions of tested strains was adjusted to turbidity of 0.5 McFarland Standard, which equals to 1–2 × 10^8 CFU/mL for bacteria and 1–5 × 10^6 for fungi. The microbial inoculums were then diluted in 1:100 ratio in case of bacteria and 1:10 ratio in case of fungi in order to get 1–5 × 10^5 CFU/mL. a sterile cotton swab was dipped into the adjusted microbial suspension and the Mueller–Hinton agar plates were inoculated by evenly streaking cotton swab over the agar medium. Then wells with a diameter of 0.5 cm were cut in the medium with a sterile cork borer. Stock solutions of the flourene derivatives were diluted in DMSO 1% to get 500 μg/mL concentrations. The tested flourene derivatives and controls (50 μL) were dispensed into the wells. The plates were incubated for 24 h at 37 °C for bacteria and C. albicans while at 25 °C for A. falvus and A. niger. The diameters of zones of inhibition (ZOI) around the wells were measured in mm. Following control agents were used: positive control agents—vancomycin (50 μg/mL) for Gram positive bacteria, gentamicin (10 μg/mL) (for Gram negative bacteria) and fluconazole 25 μg/mL for fungi and negative control agent is 1% DMSO.

[3] = system: Staphylococcus aureus (S. aureus), multidrug resistant clinical isolate; assay: agar well diffusion assay; assay type: cell-based; settings: Staphylococcus aureus; S. aureus; 500 µg/mL of tested compound; 24 h
Description: as §1, §2, §3

[4] = system: WI-38 human normal fibroblast cells; assay: cell viability assay (MTT); assay type: cell-based; settings: 24 h; for viability at 31.25 µg/mL: read-out: Validity (%) for sample concentrations (µg/mL) 31.25; for viability at 62.5 µg/mL: 62.50 µg/mL, read-out: Validity (%) for sample concentrations (µg/mL) 62.50; for viability at 125 µg/mL: read-out: Validity (%) for sample concentrations (µg/mL) 125; for viability at 250 µg/mL: read-out: Validity (%) for sample concentrations (µg/mL) 250; for viability at 500 µg/mL: read-out: Validity (%) for sample concentrations (µg/mL) 500
Procedure: (§4) WI-38 normal lung fibroblast cells, A549 lung cancer cells, and MDA-MB-231 breast cancer cells were obtained from VACSERA—Cell Culture Unit, Cairo, Egypt. The cell lines were originally obtained from the American Tissue Culture Collection (ATCC). WI-38, A549, and MDA-MB-231 cell lines were cultured in RPMI-1640 medium supplemented with 10% inactivate fetal bovine serum (FBS) and 1% penicillin/streptomycin were bought (Gibco, Invitrogen, CA). WI-38, A549, and MDA-MB-231 cells were seeded into 96-well plates (at a density of 5000 cells/well). On the following day, cells were treated with different concentrations (0, 1, 10, 31.25, 62.5, 125, 250, 500 µg/mL) of 16 fluorene derivatives in fresh medium and incubated for another 24 h. Cell viability was then assessed using the MTT assay (Sigma Aldrich, St. Louis, MO, USA), and the absorbance was read at 570 nm using an ELISA microplate reader (Molecular Devices, Downingtown, PA, USA).

[5] = system: MDA-MB-231 human breast cancer cells; assay: cell viability assay (MTT); assay type: cell-based; settings: 24 h; for viability at 1 µg/mL: read-out: Validity (%) for sample concentrations (µg/mL) 1; for viability at 10 µg/mL: read-out: Validity (%) for sample concentrations (µg/mL) 10; for viability at 31.25 µg/mL: read-out: Validity (%) for sample concentrations (µg/mL) 31.25; for viability at 62.5 µg/mL: read-out: Validity (%) for sample concentrations (µg/mL) 62.5; for viability at 125 µg/mL: read-out: Validity (%) for sample concentrations (µg/mL) 125; for viability at 250 µg/mL: read-out: Validity (%) for sample concentrations (µg/mL) 250; for viability at 500 µg/mL: read-out: Validity (%) for sample concentrations (µg/mL) 500
Procedure: as §4

| IC50 [1] [mg/L] | Compound | viability at 1 µg/mL [1] [%] | viability at 10 µg/mL [1] [%] | viability at 31.25 µg/mL [1] [%] | viability at 62.5 µg/mL [1] [%] | viability at 125 µg/mL [1] [%] | viability at 250 µg/mL [1] [%] | viability at 500 µg/mL [1] [%] | viability at 1000 µg/mL [1] [%] | viability at 31.25 µg/mL [4] [%] | viability at 62.5 µg/mL [4] [%] | viability at 125 µg/mL [4] [%] | viability at 250 µg/mL [4] [%] | viability at 500 µg/mL [4] [%] | IC50 [4] [mg/L] | viability at 1 µg/mL [5] [%] | viability at 10 µg/mL [5] [%] | viability at 31.25 µg/mL [5] [%] | viability at 62.5 µg/mL [5] [%] | viability at 125 µg/mL [5] [%] | also measured |
| --- | --- | --- | --- | --- | --- | --- | --- | --- | --- | --- | --- | --- | --- | --- | --- | --- | --- | --- | --- | --- | --- |
| 357 (≈ 719 µM) | O=C1CSC(c2ccncc2)N1c1nc(-c2cc(Cl)cc3c2-c2ccc(Cl)cc2C3)cs1 (centres unmarked) [5m, 3-(4-(2,7-Dichloro-9H-fluoren-4-yl)thiazol-2-yl)-2-(pyridin-4-yl)thiazolidin-4-one] | 94 | 92.5 | 70.7 | 67.5 | 64.5 | 56.5 | 37.3 | 20.1 | 68.5 | 64.6 | 42.3 | 40.3 | 26.5 | 92 (≈ 185 µM) | 97.3 | 89.5 | 85.4 | 88.3 | 76.9 | zone of inhibition at 500 µg/mL [2]: 8 mm; zone of inhibition at 500 µg/mL [3]: 5 mm; viability at 250 µg/mL [5]: 65.6%; viability at 500 µg/mL [5]: 50.6%; IC50 [5]: 505 mg/L (≈ 1020 µM); melting point: 110 to 112 °C |
| 338 (≈ 640 µM) | COc1ccc(C2C(Cl)C(=O)N2c2nc(-c3cc(Cl)cc4c3-c3ccc(Cl)cc3C4)cs2)cc1 (centres unmarked) [6b, 3-Chloro-1-(4-(2,7-dichloro-9H-fluoren-4-yl)thiazol-2-yl)-4-(4-methoxyphenyl)azetidin-2-one] | 95.7 | 86.9 | 85.8 | 83.5 | 77.8 | 68.2 | 35.2 | 36.3 | 94.1 | 87.9 | 71.6 | 62.6 | 57.7 | > 500 | 95.9 | 93.4 | 89.7 | 84.2 | 79.8 | zone of inhibition at 500 µg/mL [2]: 12 mm; viability at 250 µg/mL [5]: 72.9%; viability at 500 µg/mL [5]: 68.9%; IC50 [5]: > 500 mg/L; melting point: 110 to 112 °C |
| 577 (≈ 1190 µM) | O=C1CSC(c2ccc[nH]2)N1c1nc(-c2cc(Cl)cc3c2-c2ccc(Cl)cc2C3)cs1 (centres unmarked) [5l, 3-(4-(2,7-Dichloro-9H-fluoren-4-yl)thiazol-2-yl)-2-(1H-pyrrol-2-yl)thiazolidin-4-one] | 96.5 | 93.6 | 75.4 | 72.2 | 68 | 62.9 | 51.9 | 41.3 | 70.5 | 60.6 | 57.2 | 48.1 | 39.5 | 223 (≈ 460 µM) | 99.1 | 87.6 | 79.7 | 76.2 | 72.4 | zone of inhibition at 500 µg/mL [2]: 6 mm; zone of inhibition at 500 µg/mL [3]: 9 mm; viability at 250 µg/mL [5]: 64.6%; viability at 500 µg/mL [5]: 57.8%; IC50 [5]: > 500 mg/L; melting point: 124 to 126 °C |
| 574 (≈ 999 µM) | O=C1CSC(c2ccc(Br)cc2)N1c1nc(-c2cc(Cl)cc3c2-c2ccc(Cl)cc2C3)cs1 (centres unmarked) [5d, 2-(4-Bromophenyl)-3-(4-(2,7-dichloro-9H-fluoren-4-yl)thiazol-2-yl)thiazolidin-4-one] | 98.4 | 91.7 | 88.9 | 82.2 | 78.8 | 73 | 58.6 | 18.1 | 94.9 | 88.5 | 86.1 | 50.7 | 44.2 | 268 (≈ 467 µM) | 96.8 | 94.4 | 93.7 | 92.4 | 88.4 | zone of inhibition at 500 µg/mL [3]: 4 mm; viability at 250 µg/mL [5]: 87.2%; viability at 500 µg/mL [5]: 85.7%; IC50 [5]: > 500 mg/L; melting point: 155 to 157 °C |
| 896 (≈ 1720 µM) | O=C1CSC(C=Cc2ccccc2)N1c1nc(-c2cc(Cl)cc3c2-c2ccc(Cl)cc2C3)cs1 (centres unmarked) [5i, 3-(4-(2,7-Dichloro-9H-fluoren-4-yl)thiazol-2-yl)-2-styrylthiazolidin-4-one] | 93.3 | 92.2 | 91.4 | 85.6 | 81.3 | 76.9 | 63.2 | 49.3 | 88.2 | 86.9 | 69.1 | 63.1 | 59.3 | > 500 | 96 | 83.8 | 61 | 56.2 | 52.2 | zone of inhibition at 500 µg/mL [3]: 10 mm; viability at 250 µg/mL [5]: 50.5%; viability at 500 µg/mL [5]: 46.1%; IC50 [5]: 334 mg/L (≈ 640 µM); melting point: 114 to 116 °C |
| 415 (≈ 783 µM) | O=C1CSC(c2ccc(Cl)cc2)N1c1nc(-c2cc(Cl)cc3c2-c2ccc(Cl)cc2C3)cs1 (centres unmarked) [5c, 2-(4-Chlorophenyl)-3-(4-(2,7-dichloro-9H-fluoren-4-yl)thiazol-2-yl)thiazolidin-4-one] | 91.2 | 90.1 | 89.2 | 80.9 | 62.6 | 59.8 | 46.3 | 14.9 | 89.7 | 87.3 | 83.8 | 77.5 | 71.3 | > 500 | 97.1 | 95.7 | 95.8 | 92.1 | 86.3 | zone of inhibition at 500 µg/mL [3]: 3 mm; viability at 250 µg/mL [5]: 84.5%; viability at 500 µg/mL [5]: 83%; IC50 [5]: > 500 mg/L; melting point: 83 to 85 °C |
